# Where two headings read alike, the source gives them in different places.
# How the values were obtained:
# KM12 (Colon Cancer) = test: NCI DTP tumor cell line screen (SRB), KM12
# Protocol: (§1) For a typical screening experiment, cells are inoculated into 96 well microtiter plates in 100 μL at plating densities ranging from 5,000 to 40,000 cells/well depending on the doubling time of individual cell lines. After cell inoculation, the microtiter plates are incubated at 37° C., 5% CO2, 95% air and 100% relative humidity for 24 h prior to addition of experimental drugs.
# (§2) After 24 h, two plates of each cell line are fixed in situ with TCA, to represent a measurement of the cell population for each cell line at the time of drug addition (Tz). Experimental drugs are solubilized in dimethyl sulfoxide at 400-fold the desired final maximum test concentration and stored frozen prior to use. At the time of drug addition, an aliquot of frozen concentrate is thawed and diluted to twice the desired final maximum test concentration with complete medium containing 50 μg/ml gentamicin. Additional four, 10-fold or ½ log serial dilutions are made to provide a total of five drug concentrations plus control. Aliquots of 100 μl of these different drug dilutions are added to the appropriate microtiter wells already containing 100 μl of medium, resulting in the required final drug concentrations.
# (§3) Following drug addition, the plates are incubated for an additional 48 h at 37° C., 5% CO2, 95% air, and 100% relative humidity. For adherent cells, the assay is terminated by the addition of cold TCA. Cells are fixed in situ by the gentle addition of 50 μl of cold 50% (w/v) TCA (final concentration, 10% TCA) and incubated for 60 minutes at 4° C. The supernatant is discarded, and the plates are washed five times with tap water and air dried. Sulforhodamine B (SRB) solution (1001) at 0.4% (w/v) in 1% acetic acid is added to each well, and plates are incubated for 10 minutes at room temperature. After staining, unbound dye is removed by washing five times with 1% acetic acid and the plates are air dried. Bound stain is subsequently solubilized with 10 mM trizma base, and the absorbance is read on an automated plate reader at a wavelength of 515 nm. For suspension cells, the methodology is the same except that the assay is terminated by fixing settled cells at the bottom of the wells by gently adding 50 μl of 80% TCA (final concentration, 16% TCA). Using the seven absorbance measurements [time zero, (Tz), control growth, (C), and test growth in the presence of drug at the five concentration levels (Ti)], the percentage growth is calculated at each of the drug concentrations levels. Percentage growth inhibition is calculated as: [(Ti−Tz)/(C−Tz)]×100 for concentrations for which Ti>/=Tz [(Ti−Tz)/Tz]×100 for concentrations for which Ti<Tz
# (§4) Three dose response parameters are calculated for each experimental agent. […] The drug concentration resulting in total growth inhibition (TGI) is calculated from Ti=Tz. […] Values are calculated for each of these three parameters if the level of activity is reached; however, if the effect is not reached or is exceeded, the value for that parameter is expressed as greater or less than the maximum or minimum concentration tested.
# DU-145 (Prostate Cancer) = test: NCI DTP tumor cell line screen (SRB), DU-145
# Protocol: as §1, §2, §3, §4
# OVCAR-4 (Ovarian Cancer) = test: NCI DTP tumor cell line screen (SRB), OVCAR-4
# Protocol: as §1, §2, §3, §4
# [1] = system: NCI-H460 (Non-Small Cell Lung Cancer)
# Protocol: as §1, §2, §3, §4
# HCT-116 (Colon Cancer) = test: NCI DTP tumor cell line screen (SRB), HCT-116
# Protocol: as §1, §2, §3, §4
# [2] = system: HOP-92 (Non-Small Cell Lung Cancer); test: NCI DTP tumor cell line screen (SRB), HOP-92
# Protocol: as §1, §2, §3, §4
# SK-MEL-5 (Melanoma) = test: NCI DTP tumor cell line screen (SRB), SK-MEL-5
# Protocol: as §1, §2, §3, §4
# [3] = system: NCI-H23 (Non-Small Cell Lung Cancer)
# Protocol: as §1, §2, §3, §4
# [4] = system: NCI/ADR-RES (Breast Cancer)
# Protocol: as §1, §2, §3, §4
# [5] = system: MDA-MB-231/ATCC (Breast Cancer); test: NCI DTP tumor cell line screen (SRB), MDA-MB-231/ATCC
# Protocol: as §1, §2, §3, §4
# ACHN (Renal Cancer) = test: NCI DTP tumor cell line screen (SRB), ACHN
# Protocol: as §1, §2, §3, §4
# K-562 (Leukemia) = test: NCI DTP tumor cell line screen (SRB), K-562
# Protocol: as §1, §2, §3, §4
# HCT-15 (Colon Cancer) = test: NCI DTP tumor cell line screen (SRB), HCT-15; details: HCT-15
# Protocol: as §1, §2, §3, §4
# HS 578T (Breast Cancer) = test: NCI DTP tumor cell line screen (SRB), HS 578T
# Protocol: as §1, §2, §3, §4
# MOLT-4 (Leukemia) = test: NCI DTP tumor cell line screen (SRB), MOLT-4
# Protocol: as §1, §2, §3, §4
# [6] = system: EKVX (Non-Small Cell Lung Cancer); test: NCI DTP tumor cell line screen (SRB), EKVX
# Protocol: as §1, §2, §3, §4
smiles,measurement,setting,value
"NCC(=O)Nc1ccc(-n2nc(C(F)(F)F)cc2-c2ccc3c(ccc4ccccc43)c2)cc1 [Compound 70, 2-Amino-N-{4-[5-(2-phenanthrenyl)-3-(trifluoromethyl)-1H-pyrazol-1-yl]-phenyl}-acetamide]",TGI,KM12 (Colon Cancer),2.67E−06
same,Mean Optical Densities,KM12 (Colon Cancer); Log10 Concentration −4.0,0.264
same,Mean Optical Densities,KM12 (Colon Cancer); Log10 Concentration −5.0,0.146
same,Percent Growth,KM12 (Colon Cancer); Log10 Concentration −5.0,−73%
same,Mean Optical Densities,KM12 (Colon Cancer); Log10 Concentration −6.0,1.425
same,Percent Growth,KM12 (Colon Cancer); Log10 Concentration −6.0,54%
same,Mean Optical Densities,KM12 (Colon Cancer); Log10 Concentration −7.0,2.044
same,Percent Growth,KM12 (Colon Cancer); Log10 Concentration −7.0,91%
same,Mean Optical Densities,KM12 (Colon Cancer); Log10 Concentration −8.0,2.151
same,Percent Growth,KM12 (Colon Cancer); Log10 Concentration −8.0,98%
same,TGI,DU-145 (Prostate Cancer),3.47E−06
same,Mean Optical Densities,DU-145 (Prostate Cancer); Log10 Concentration −4.0,0.132
same,Mean Optical Densities,DU-145 (Prostate Cancer); Log10 Concentration −5.0,0.078
same,Percent Growth,DU-145 (Prostate Cancer); Log10 Concentration −5.0,−76%
same,Mean Optical Densities,DU-145 (Prostate Cancer); Log10 Concentration −6.0,0.895
same,Percent Growth,DU-145 (Prostate Cancer); Log10 Concentration −6.0,90%
same,Mean Optical Densities,DU-145 (Prostate Cancer); Log10 Concentration −7.0,1.018
same,Percent Growth,DU-145 (Prostate Cancer); Log10 Concentration −7.0,109%
same,Mean Optical Densities,DU-145 (Prostate Cancer); Log10 Concentration −8.0,0.993
same,Percent Growth,DU-145 (Prostate Cancer); Log10 Concentration −8.0,105%
same,TGI,OVCAR-4 (Ovarian Cancer),3.41E−06
same,Mean Optical Densities,OVCAR-4 (Ovarian Cancer); Log10 Concentration −4.0,0.172
same,Mean Optical Densities,OVCAR-4 (Ovarian Cancer); Log10 Concentration −5.0,0.093
same,Percent Growth,OVCAR-4 (Ovarian Cancer); Log10 Concentration −5.0,−82%
same,Mean Optical Densities,OVCAR-4 (Ovarian Cancer); Log10 Concentration −6.0,1.086
same,Percent Growth,OVCAR-4 (Ovarian Cancer); Log10 Concentration −6.0,94%
same,Mean Optical Densities,OVCAR-4 (Ovarian Cancer); Log10 Concentration −7.0,1.073
same,Percent Growth,OVCAR-4 (Ovarian Cancer); Log10 Concentration −7.0,92%
same,Mean Optical Densities,OVCAR-4 (Ovarian Cancer); Log10 Concentration −8.0,1.114
same,Percent Growth,OVCAR-4 (Ovarian Cancer); Log10 Concentration −8.0,99%
same,TGI,[1],2.64E−06
same,Mean Optical Densities,[1]; Log10 Concentration −4.0,0.213
same,Mean Optical Densities,[1]; Log10 Concentration −5.0,0.173
same,Mean Optical Densities,[1]; Log10 Concentration −6.0,0.830
same,Percent Growth,[1]; Log10 Concentration −6.0,34%
same,Mean Optical Densities,[1]; Log10 Concentration −7.0,1.499
same,Percent Growth,[1]; Log10 Concentration −7.0,77%
same,Mean Optical Densities,[1]; Log10 Concentration −8.0,1.799
same,Percent Growth,[1]; Log10 Concentration −8.0,97%
same,Mean Optical Densities,HCT-116 (Colon Cancer); Log10 Concentration −4.0,0.146
same,Mean Optical Densities,HCT-116 (Colon Cancer); Log10 Concentration −5.0,0.104
same,Percent Growth,HCT-116 (Colon Cancer); Log10 Concentration −5.0,−9%
same,Mean Optical Densities,HCT-116 (Colon Cancer); Log10 Concentration −6.0,0.452
same,Percent Growth,HCT-116 (Colon Cancer); Log10 Concentration −6.0,57%
same,Mean Optical Densities,HCT-116 (Colon Cancer); Log10 Concentration −7.0,0.665
same,Percent Growth,HCT-116 (Colon Cancer); Log10 Concentration −7.0,93%
same,Mean Optical Densities,HCT-116 (Colon Cancer); Log10 Concentration −8.0,0.751
same,Percent Growth,HCT-116 (Colon Cancer); Log10 Concentration −8.0,107%
same,TGI,[2],3.07E−06
same,Mean Optical Densities,[2]; Log10 Concentration −4.0,0.267
same,Mean Optical Densities,[2]; Log10 Concentration −5.0,0.095
same,Percent Growth,[2]; Log10 Concentration −5.0,−91%
same,Mean Optical Densities,[2]; Log10 Concentration −6.0,1.465
same,Percent Growth,[2]; Log10 Concentration −6.0,87%
same,Mean Optical Densities,[2]; Log10 Concentration −7.0,1.474
same,Percent Growth,[2]; Log10 Concentration −7.0,89%
same,Mean Optical Densities,[2]; Log10 Concentration −8.0,1.509
same,Percent Growth,[2]; Log10 Concentration −8.0,96%
same,TGI,SK-MEL-5 (Melanoma),3.02E−06
same,Mean Optical Densities,SK-MEL-5 (Melanoma); Log10 Concentration −4.0,0.364
same,Mean Optical Densities,SK-MEL-5 (Melanoma); Log10 Concentration −5.0,0.136
same,Percent Growth,SK-MEL-5 (Melanoma); Log10 Concentration −5.0,−75%
same,Mean Optical Densities,SK-MEL-5 (Melanoma); Log10 Concentration −6.0,1.659
same,Percent Growth,SK-MEL-5 (Melanoma); Log10 Concentration −6.0,69%
same,Mean Optical Densities,SK-MEL-5 (Melanoma); Log10 Concentration −7.0,1.958
same,Percent Growth,SK-MEL-5 (Melanoma); Log10 Concentration −7.0,88%
same,Mean Optical Densities,SK-MEL-5 (Melanoma); Log10 Concentration −8.0,1.995
same,Percent Growth,SK-MEL-5 (Melanoma); Log10 Concentration −8.0,91%
same,TGI,[3],2.87E−06
same,Mean Optical Densities,[3]; Log10 Concentration −4.0,0.156
same,Mean Optical Densities,[3]; Log10 Concentration −5.0,0.097
same,Percent Growth,[3]; Log10 Concentration −5.0,−79%
same,Mean Optical Densities,[3]; Log10 Concentration −6.0,1.255
same,Percent Growth,[3]; Log10 Concentration −6.0,67%
same,Mean Optical Densities,[3]; Log10 Concentration −7.0,1.673
same,Percent Growth,[3]; Log10 Concentration −7.0,102%
same,Mean Optical Densities,[3]; Log10 Concentration −8.0,1.672
same,Percent Growth,[3]; Log10 Concentration −8.0,101%
same,TGI,[4],2.85E−06
same,Mean Optical Densities,[4]; Log10 Concentration −4.0,0.212
same,Mean Optical Densities,[4]; Log10 Concentration −5.0,0.229
same,Percent Growth,[4]; Log10 Concentration −5.0,−59%
same,Mean Optical Densities,[4]; Log10 Concentration −6.0,1.217
same,Percent Growth,[4]; Log10 Concentration −6.0,49%
same,Mean Optical Densities,[4]; Log10 Concentration −7.0,1.878
same,Percent Growth,[4]; Log10 Concentration −7.0,98%
same,Mean Optical Densities,[4]; Log10 Concentration −8.0,1.883
same,Percent Growth,[4]; Log10 Concentration −8.0,98%
same,TGI,[5],2.77E−06
same,Mean Optical Densities,[5]; Log10 Concentration −4.0,0.306
same,Mean Optical Densities,[5]; Log10 Concentration −5.0,0.173
same,Percent Growth,[5]; Log10 Concentration −5.0,−73%
same,Mean Optical Densities,[5]; Log10 Concentration −6.0,0.843
same,Percent Growth,[5]; Log10 Concentration −6.0,58%
same,Mean Optical Densities,[5]; Log10 Concentration −7.0,0.889
same,Percent Growth,[5]; Log10 Concentration −7.0,71%
same,Mean Optical Densities,[5]; Log10 Concentration −8.0,0.988
same,Percent Growth,[5]; Log10 Concentration −8.0,100%
same,TGI,ACHN (Renal Cancer),3.45E−06
same,Mean Optical Densities,ACHN (Renal Cancer); Log10 Concentration −4.0,0.313
same,Mean Optical Densities,ACHN (Renal Cancer); Log10 Concentration −5.0,0.150
same,Percent Growth,ACHN (Renal Cancer); Log10 Concentration −5.0,−60%
same,Mean Optical Densities,ACHN (Renal Cancer); Log10 Concentration −6.0,0.829
same,Percent Growth,ACHN (Renal Cancer); Log10 Concentration −6.0,70%
same,Mean Optical Densities,ACHN (Renal Cancer); Log10 Concentration −7.0,1.037
same,Percent Growth,ACHN (Renal Cancer); Log10 Concentration −7.0,102%
same,Mean Optical Densities,ACHN (Renal Cancer); Log10 Concentration −8.0,0.985
same,Percent Growth,ACHN (Renal Cancer); Log10 Concentration −8.0,94%
same,TGI,K-562 (Leukemia),3.34E−06
same,Mean Optical Densities,K-562 (Leukemia); Log10 Concentration −4.0,0.247
same,Mean Optical Densities,K-562 (Leukemia); Log10 Concentration −5.0,0.209
same,Percent Growth,K-562 (Leukemia); Log10 Concentration −5.0,−30%
same,Mean Optical Densities,K-562 (Leukemia); Log10 Concentration −6.0,0.681
same,Percent Growth,K-562 (Leukemia); Log10 Concentration −6.0,33%
same,Mean Optical Densities,K-562 (Leukemia); Log10 Concentration −7.0,1.022
same,Percent Growth,K-562 (Leukemia); Log10 Concentration −7.0,62%
same,Mean Optical Densities,K-562 (Leukemia); Log10 Concentration −8.0,1.435
same,Percent Growth,K-562 (Leukemia); Log10 Concentration −8.0,97%
same,TGI,HCT-15 (Colon Cancer),3.19E−06
same,Mean Optical Densities,HCT-15 (Colon Cancer); Log10 Concentration −5.0,0.149
same,Percent Growth,HCT-15 (Colon Cancer); Log10 Concentration −5.0,−47%
same,Mean Optical Densities,HCT-15 (Colon Cancer); Log10 Concentration −6.0,0.561
same,Percent Growth,HCT-15 (Colon Cancer); Log10 Concentration −6.0,47%
same,Mean Optical Densities,HCT-15 (Colon Cancer); Log10 Concentration −7.0,0.599
same,Percent Growth,HCT-15 (Colon Cancer); Log10 Concentration −7.0,54%
same,Mean Optical Densities,HCT-15 (Colon Cancer); Log10 Concentration −8.0,0.760
same,Percent Growth,HCT-15 (Colon Cancer); Log10 Concentration −8.0,81%
same,TGI,HS 578T (Breast Cancer),5.25E−06
same,Mean Optical Densities,HS 578T (Breast Cancer); Log10 Concentration −4.0,0.333
same,Mean Optical Densities,HS 578T (Breast Cancer); Log10 Concentration −5.0,0.351
same,Mean Optical Densities,HS 578T (Breast Cancer); Log10 Concentration −6.0,1.110
same,Mean Optical Densities,HS 578T (Breast Cancer); Log10 Concentration −7.0,1.179
same,Mean Optical Densities,HS 578T (Breast Cancer); Log10 Concentration −8.0,1.221
same,TGI,MOLT-4 (Leukemia),3.10E−06
same,Mean Optical Densities,MOLT-4 (Leukemia); Log10 Concentration −4.0,0.296
same,Mean Optical Densities,MOLT-4 (Leukemia); Log10 Concentration −5.0,0.180
same,Percent Growth,MOLT-4 (Leukemia); Log10 Concentration −5.0,−42%
same,Mean Optical Densities,MOLT-4 (Leukemia); Log10 Concentration −6.0,0.614
same,Percent Growth,MOLT-4 (Leukemia); Log10 Concentration −6.0,41%
same,Mean Optical Densities,MOLT-4 (Leukemia); Log10 Concentration −7.0,0.951
same,Percent Growth,MOLT-4 (Leukemia); Log10 Concentration −7.0,87%
same,Mean Optical Densities,MOLT-4 (Leukemia); Log10 Concentration −8.0,0.964
same,Percent Growth,MOLT-4 (Leukemia); Log10 Concentration −8.0,89%
same,TGI,[6],3.25E−06
same,Mean Optical Densities,[6]; Log10 Concentration −4.0,0.193
same,Mean Optical Densities,[6]; Log10 Concentration −5.0,0.156
same,Percent Growth,[6]; Log10 Concentration −5.0,−72%
same,Mean Optical Densities,[6]; Log10 Concentration −6.0,0.786
same,Percent Growth,[6]; Log10 Concentration −6.0,75%
same,Mean Optical Densities,[6]; Log10 Concentration −7.0,0.860
same,Percent Growth,[6]; Log10 Concentration −7.0,100%
same,Mean Optical Densities,[6]; Log10 Concentration −8.0,0.891
same,Percent Growth,[6]; Log10 Concentration −8.0,110%

# Source: patent publication US8741944B2, “Anti-infective agents against intracellular pathogens” (priority 2007, dated 2014)
